Data from patent publication US6265423A, “Aromatic polycyclic retinoid-type derivatives, method for preparing same, and use thereof for making pharmaceutical and cosmetic compositions” (priority 1996, dated 2001).
“Also recorded” adds a separate entry of the source.

Columns and labels:
RARβ-ERcassette = assay: Transactivation, chimerical receptor RARβ-ERcassette (HeLa); assay type: cell-based; conditions: 10^-6 M; TTNPB 10^-8 M = 100
From the text: (§1) The HeLa cells are co-transfected by a plasmid which codes for a retinoic receptor in which the C domain of bonding to the DNA is substituted by that of the receptor to RE oestrogens, and a plasmid which places the expression of the luciferase under the control of an ERE (Element of Response to Oestrogens). The expressed chimerical receptors are designated as RARα-ERcassette, RARβ-ERcassette, RARγ-ERcassette and RXRα-ERcassette. The A, B, D, E and F regions of the natural receptor are preserved as well as the transcriptional co-operation between the activation domains AF-1 and AF-2. These transitory transfection experiments follow the method of co-precipitation to calcium phosphate. The HeLa cells are co-transfected by […] of plasmid coding for the chimerical receptor, […] of reporter plasmid and […] of expression vector CMV-β-galactosidase used as an internal control of transfection. 24 hours after the transfection, the cells are incubated for 16 hours with the different effectors.
(§2) In this type of chimerical receptor, the C domain of bonding to the DNA of RAR is substituted by that of the receptor to the RE oestrogens. The protein obtained is close to the natural RAR receptor and preserves the transcriptional properties of the AF-1 and AF-2 domains. It modulates the transcription by means of an ERE. This RAR-ERcassette model allows one to observe a transcriptional response to a more physiological ligand.

RARγ-ERcassette = assay: Transactivation, chimerical receptor RARγ-ERcassette (HeLa); assay type: cell-based; conditions: 10^-6 M; TTNPB 10^-8 M = 100
From the text: as §1, §2

RARα-ERcassette = assay: Transactivation, chimerical receptor RARα-ERcassette (HeLa); assay type: cell-based; conditions: 10^-6 M; TTNPB 10^-8 M = 100
From the text: as §1, §2

[1] = test system: human mammary tumoral lineage T-47D; assay: Clonogenic test (soft agar), growth of cellular colonies; assay type: cell-based; conditions: T-47D; for activity at 0.01 µM / activity at 0.001 µM / activity at 0.0001 µM: 504 h, 21 days, control = 100%, read-out: mean number of cellular colonies in relation to control; for activity at 0.001 µM: 10^-9 M; for activity at 0.0001 µM: 10^-10 M; for effect on growth of cellular colonies (in words): soft agar
From the text: The human tumour stem cells are the clonogenic cells which are the origin of the neoplasic cells which constitute a given tumour. These tumour stem cells are responsible for the recidivism process observable after surgical resection of the primary tumours and are also responsible for the formation of metastases. […] At the level of a tumour or of a tumoral cellular lineage, these clonogenic stem cells distinguish themselves from other clonogenic cells of the tumour or of the neoplasic cellular lineage being considered, by the fact that they preserve their ability to proliferate in the absence of any solid support.
This technique is suitable for the culturing in vitro of most of the tumours and tumoral cellular lineages of various histological types. In the context of this test, the neoplastic cells are cultured on a semi-solid culture medium "soft agar" made up of a mixture of agar and agarose. On this selective support, only tumoral stem cells survive and proliferate. […] The morphological characteristics and the growth of the cellular colonies are also a function of the histological type of the tumours being considered.
These culture conditions are also called "anchorage-independent" conditions.
The base medium "MEM 25 MM HEPES" (Minimum Essential Medium, Life Technologies, Belgium) contains Eagle salts but no L-glutamine. This medium is well suited to the growth of a range of varied diploid cells or primary mammal cells. To this medium is then added:
The tumoral cells are maintained in culture in 25 cm^2 falcon dishes (Life Technologies, Belgium). They are then trypsinised and individualised. Their rate of viability is determined by coloration with trypan blue (Sigma, Belgium). It must be greater than 90%. In the case where this condition is kept to, a cellular suspension at the desired concentration is prepared in a solution of agar at 0. 3%. The cells are then seeded between two layers of agar (Sigma, Belgium) and in 35 mm Petri dishes (Life Technologies, Belgium). The base layer is made up of a 0.5% solution of agar and the top layer is made up of a 0.3% solution of agar. The cupules are then positioned and held in an incubator at 37° C. and 5% of CO2. […] After treatment, the cupules are kept in the incubator for 21 days. It is advisable to examine, during the course of the experiment, the appearance and the increase of the cellular colonies. If after 10 days, no colony appears or is developing, the experiment must be repeated. In the contrary case, on the 21st day, 100 μl of an MTT solution (3-(4,5-dimethylthiazol-2-yl)-2,5 diphenyl tetrazolium bromide; Sigma, Belgium) dissolved in the RPMI culture medium (Roswell park Memorial Institute, Life Technologies, Belgium), at the concentration of 1 mg/ml are deposited on the top layer of the group of cupules. The cells are kept in contact with this solution for a minimum of 3 hours at 37° C.
Using an inverted microscope at low magnification, the number of clones whose surface area is greater thar. 100 μm^2 is determined for the group of cupules representing all the different experimental conditions. Then, for each of these experimental conditions, the mean number of cellular colonies±the standard error on the mean (ESM) is calculated.
The mean number of cellular colonies determined for each experimental condition is expressed as a percentage in relation to the control condition made equal to 100%.

[2] = test system: ERE-βGlob-Luc, MELN lineage (MCF-7); assay: Anti-oestrogenic effect, MELN lineage activated by estradiol; assay type: cell-based, human; conditions: for inhibition / inhibition at 0.1 µM / inhibition at 0.01 µM: Homo sapiens, MCF7, cells activated by 10^-9 M estradiol; for inhibition: 10^-6 M; for inhibition at 0.1 µM: 10^-7 M; for inhibition at 0.1 µM / inhibition at 0.01 µM: read-out: anti-oestrogenic effect, inhibition; for inhibition at 0.01 µM: 10^-8 M
From the text: (§3) Certain properties of the retinoids have been determined using more developed cellular models. These models consist of cellular lineages transfected in a stable fashion by recombinant plasmids which place the expression of the gene of the luciferase under the control of different nuclear response elements. […] The tests carried out in duplicate are described below for each of these models.
MCF-7 cells express RARα,γ and RXRα. The transfection of MCF-7 cells by an oestrogen-dependent gene (ERE-βGlob-Luc) has permitted the establishment of the MELN cellular lineage, used to determine the anti-oestrogenic activity of the retinoids. These cells contain the gene of the luciferase under the transcriptional control of the promoter of the βGlobine and of the response element ERE isolated from the gene of chicken vitelogenine A2. The experiments are carried out with MELN cells activated by 10^-9 M estradiol. The level of base activity of the MELN cells is obtained with the anti-oestrogen 1 μM 4-OH-tamoxifen (hydroxytamoxifen).
The effect of the products tested on the cells activated by 10^-9 M estradiol is expressed as a percentage, the level of base activity being deducted.

[3] = test system: response element RARE of RARβ gene, endogenic retinoic receptors, HRLN lineage; assay: HRLN transactivation (RARE-luciferase, stably transfected HeLa); assay type: cell-based; conditions: Homo sapiens, HeLa; for EC50: concentrations from 1 nM to 1 μM; for Emax: read-out: HRLN transactivation, E max
Protocol: (§4) MCF-7 cells and HeLa are cultivated in DMFM with phenol red to which 5% foetal calf serum is added. The T47-D cells are cultivated in RPMI to which 10% foetal calf serum is added. The experimental tests are carried out in DMEM without phenol red to which foetal calf serum treated with dextran carbon is added at 3%. […] The experiments using the different retinoids are carried out sheltered from the light so as to avoid any isomerisation.
as §3
The cellular lineages HRLN and HRL+N allow one to study the activation of an RARE by endogenic receptors using ligands at physiological concentrations. These lineages derive from HeLa cells transfected in a stable fashion by a reporter gene which places the expression of the gene of the luciferase under the control of a nuclear response element RARE (RARE3 -tk-Luc). The HeLa cells express all the known receptors of the retinoic acid (RARα,β,γ and RXRα,β,γ) with a predominance of RARα and RXRα. The response element RARE used for the HRLN cells corresponds to the sequence of the natural gene of the RARβ receptor (GGTTCAnnnnnAGTTCA). The HRL+N cells comprise the sequence GAGTGAnnnnnCGGTGA.
This lineage comprises the response element RARE of the natural gene of the RARβ receptor which controls the expression of the gene of the luciferase.

T-47D cells = assay: Effect on oestrogen-induced proliferation of T-47D cells; assay type: cell-based, human; conditions: estradiol 10^-9 M
Protocol: as §4
So as to test the anti-proliferation effect of the retinoids, growth experiments under oestrogenic conditions were carried out on cells MCF-7 and T-47D. These are the human oestrogen-dependent mammary cancer cells which express the receptor to RE oestrogens. The effect of the molecules is evaluated after 7 days of culture in oestrogenic conditions (estradiol 10^-9 M) by dosing the cellular DNA. The cells are distributed in 24 well plates at a density of 2×10^4 cells per well. The tests with the different retinoids are carried out in triplicate and the culture medium is changed after 4 days of growth.

RAR and RXR receptors = assay: RAR/RXR activity profile drawn from the models; assay type: cell-based
From the text: The reference molecules have allowed one to show the effectiveness and the complementary nature of the different models used and lead to the following conclusions: chimerical constructions GAL-RAR and RAR-ERcassette allow the determination of the RAR agonist profile of molecules, but also an RXR agonist activity with RAR-ERcassette, the HRLN lineage mainly conveys the activity of a compound mediated by endogenic RARα, the HRL+N lineage also provides evidence of an RXR agonist activity of the retinoids, the anti-oestrogenic effect of the retinoids (oestrogen-induced cellular proliferation and MELN lineage) is mediated by RARα, the anti-AP-1 effect is mediated in the MCF-7 cells (MTLN lineage) by RARα, RARγ and RXRα, and an additive effect exists between the RAR and RXR routes.

Row | EC50 [3] | RAR/RXR activity profile (in words) (RAR and RXR receptors) | Compound | RAR-ERcassette RARβ transactivation (RARβ-ERcassette) | RAR-ERcassette RARγ transactivation (RARγ-ERcassette) | RAR-ERcassette RARα transactivation (RARα-ERcassette) | activity at 0.01 µM ([1]; Homo sapiens, T47D, 10^-8 M) | activity at 0.001 µM ([1]; Homo sapiens, T47D) | activity at 0.0001 µM ([1]; Homo sapiens, T47D) | inhibition at 0.01 µM ([1]; Homo sapiens, T47D, 10^-8 M, read-out: inhibition of colony growth) | inhibition [2] | inhibition at 0.1 µM [2] | inhibition at 0.01 µM [2] | Emax [3] | effect on oestrogen-induced growth, T-47D (in words) (T-47D cells) | anti-oestrogenic effect (in words) ([2]; estradiol-activated MELN cells) | inhibition at 1 µM (T-47D cells; Homo sapiens, T47D, 168 h, 1 μM (10^-6 M), 7 days, read-out: percentage inhibition of growth, T-47D) | effect on growth of cellular colonies (in words) [1]
1 | 21.4 ± 5.6 nM | – | C/C(=C\c1ccc2c(c1)C(C)(C)CCC2(C)C)c1ccc(C(=O)O)nc1 [CB12273, (E) 5-[1-(5,6,7,8-tetrahydro-5,5,8,8-tetramethyl-2-naphthalenyl)-2-propenyl]pyridinyl-2-carboxylic acid] | 123% | 106% | 90% | 71.2 ± 2.9% | 93.9 ± 3.3% | 92.9 ± 21.7% | 28.8% | 21 to 41% | 7 to 16% | 0% | 106% | – | – | – | –
2 | 0.08 ± 0.1 nM | RAR selective | C/C(=C\c1ccc2c(c1)C(C)(C)CCC2(C)C)c1ccc(C(=O)O)cc1 [CB24159, reference compound] | 117% | 89% | 113% | – | – | – | – | 22 to 37% | 26 to 43% | 31 to 43% | 100% | inhibits the growth of the T-47D cells in a dose dependent manner with an efficacy greater than that of TTNPB | the most inhibiting of the oestrogenic transcription on the MELN model | – | –
3 | 14.9 ± 12.3 nM | – | C/C(=C\c1ccc2c(c1)C(C)(C)CCC2(C)C)c1ccc(C(=O)O)s1 [CB38973] | – | – | – | 38.6 ± 3.6% | 60.1 ± 2% | 68.4 ± 8.3% | – | 30% | – | – | 89% | – | – | 55% | inhibit the growth of the cellular colonies; also recorded: significantly inhibit the growth of the colonies
4 | 55.8 ± 70.1 nM | – | C/C(=C\c1ccc2c(c1)C(C)(C)CCC2(C)C)c1cc(C(=O)O)no1 [CB57201] | 132% | 84% | 73% | 64.8 ± 1.2% | 58.9 ± 11% | 75.2 ± 12.2% | – | 23 to 41% | 1 to 9% | 0% | 70% | – | – | – | inhibit the growth of the cellular colonies; also recorded: significantly inhibit the growth of the colonies
5 | 38.3 ± 9.5 nM | – | C/C(=C\c1ccc2c(c1)C(C)(C)CCC2(C)C)c1cc(C(=O)O)cs1 [CB80660] | – | – | – | – | – | – | – | 18 to 37% | 20 to 42% | 26% | 106% | – | – | – | –
